Data: PubChem BioAssay AID1963848 (Molecular Pharmacology Branch, DTP, NCI, 2024)

Tested on: 379773-124-R-J2-PDC spheroid viability
Experiment: Anticancer human tumor 379773-124-R-J2-PDC patient-derived endometrial carcinoma cell line growth inhibition [POLQ]
Conditions: spheroids with HUVEC and MSC; for IC50: curve of first compound; for viability, T/C: stronger effect = lower value
Outline: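 Growth inhibition in 3D: complex spheroids (tumor PDC, HUVEC, MSC) treated with POLQ inhibitor combinations; where Cmax unknown, highest tested concentration 10 microM, except SN-38 at 1 microM.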

[1] = second compound 0.0316 µM, first compound 0.0316 µM
[2] = second compound 0.0316 µM, first compound 0.1 µM
[3] = second compound 0.0316 µM, first compound 0.316 µM
[4] = second compound 0.0316 µM, first compound 1 µM
[5] = second compound 0.0316 µM, first compound 3.16 µM
[6] = second compound 0.0316 µM, first compound 10 µM
[7] = second compound 0.1 µM, first compound 0.0316 µM
[8] = second compound 0.1 µM, first compound 0.1 µM
[9] = second compound 0.1 µM, first compound 0.316 µM
[10] = second compound 0.1 µM, first compound 1 µM
[11] = second compound 0.1 µM, first compound 3.16 µM
[12] = second compound 0.1 µM, first compound 10 µM
[13] = second compound 0.316 µM, first compound 0.0316 µM
[14] = second compound 0.316 µM, first compound 0.1 µM
[15] = second compound 0.316 µM, first compound 0.316 µM
[16] = second compound 0.316 µM, first compound 1 µM
[17] = second compound 0.316 µM, first compound 3.16 µM
[18] = second compound 0.316 µM, first compound 10 µM
[19] = second compound 1 µM, first compound 0.0316 µM
[20] = second compound 1 µM, first compound 0.1 µM
[21] = second compound 1 µM, first compound 0.316 µM
[22] = second compound 1 µM, first compound 1 µM
[23] = second compound 1 µM, first compound 3.16 µM
[24] = second compound 1 µM, first compound 10 µM
[25] = second compound 3.16 µM, first compound 0.0316 µM
[26] = second compound 3.16 µM, first compound 0.1 µM
[27] = second compound 3.16 µM, first compound 0.316 µM
[28] = second compound 3.16 µM, first compound 1 µM
[29] = second compound 3.16 µM, first compound 3.16 µM
[30] = second compound 3.16 µM, first compound 10 µM
[31] = second compound 10 µM, first compound 0.0316 µM
[32] = second compound 10 µM, first compound 0.1 µM
[33] = second compound 10 µM, first compound 0.316 µM
[34] = second compound 10 µM, first compound 1 µM
[35] = second compound 10 µM, first compound 3.16 µM
[36] = second compound 10 µM, first compound 10 µM
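Further: spheroids exposed to drugs for seven days before readout.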
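Wherever viability, T/C is given: percent viability relative to DMSO vehicle control taken as 100%.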

In the case of CCc1cc2c(N3CCc4c(cc(Cn5ccnc5)cc4-c4cn(C)nc4C(F)(F)F)C3=O)cc(C)nc2c(OC)n1 + COC1C(OC(N)=O)C(O)C(Oc2ccc3c(O)c(NC(=O)c4ccc(O)c(CC=C(C)C)c4)c(=O)oc3c2C)OC1(C)C, the IC50 (second compound 0.0316 µM) is reported as 1.22 µM, the IC50 (second compound 0.1 µM) is reported as 2.13 µM and the IC50 (second compound 0.316 µM) is reported as 3.32 µM. The IC50 (second compound 1 µM) was 1.5 µM, the IC50 (second compound 3.16 µM) was 2.07 µM and the IC50 (second compound 10 µM) was 3.15 µM. For the same compound, the viability, T/C [1] was 68.2%, the viability, T/C [2] was 63.2% and the viability, T/C [3] was 53.7%. The viability, T/C [4] was 53%, the viability, T/C [5] was 45.5% and the viability, T/C [6] was 48.5%. The viability, T/C [7] was 62.2%, the viability, T/C [8] was 62.3% and the viability, T/C [9] was 58.1%. It also gave a viability, T/C [10] of 51.3%, a viability, T/C [11] of 49.4% and a viability, T/C [12] of 41.7%. It also gave a viability, T/C [13] of 68.5%, a viability, T/C [14] of 63.6% and a viability, T/C [15] of 63.8%. It also gave a viability, T/C [16] of 52.6%, a viability, T/C [17] of 49.2% and a viability, T/C [18] of 46.3%. It also gave a viability, T/C [19] of 66.4%, a viability, T/C [20] of 69.4% and a viability, T/C [21] of 58.1%. It also gave a viability, T/C [22] of 54.6%, a viability, T/C [23] of 43.8% and a viability, T/C [24] of 37.8%. For the same compound, the viability, T/C [25] was 68.4%, the viability, T/C [26] was 59.6% and the viability, T/C [27] was 50.1%. It also gave a viability, T/C [28] of 55.8%, a viability, T/C [29] of 50% and a viability, T/C [30] of 46.5%. The viability, T/C [31] was 77%, the viability, T/C [32] was 58.7% and the viability, T/C [33] was 61.5%. For the same compound, the viability, T/C [34] was 55.7%, the viability, T/C [35] was 54.9% and the viability, T/C [36] was 42.2%.
Compound CCc1cc2c(N3CCc4c(cc(Cn5ccnc5)cc4-c4cn(C)nc4C(F)(F)F)C3=O)ccnc2c(OC)n1 + Cc1cccc(N(C)C(=O)C2C(O)CCN2c2nc(C)cc(C(F)(F)F)c2C#N)c1 has an IC50 (second compound 0.0316 µM) of over 10 µM, an IC50 (second compound 0.1 µM) of over 10 µM and an IC50 (second compound 0.316 µM) of over 10 µM. The IC50 (second compound 1 µM) was over 10 µM, the IC50 (second compound 3.16 µM) was over 10 µM and the IC50 (second compound 10 µM) was 3.73 µM. For the same compound, the viability, T/C [1] was 76.1%, the viability, T/C [2] was 68.8% and the viability, T/C [3] was 73%. For the same compound, the viability, T/C [4] was 63.2%, the viability, T/C [5] was 59.1% and the viability, T/C [6] was 54.5%. The viability, T/C [7] was 81.9%, the viability, T/C [8] was 71.1% and the viability, T/C [9] was 64.3%. It also gave a viability, T/C [10] of 69.6%, a viability, T/C [11] of 55.2% and a viability, T/C [12] of 50%. For the same compound, the viability, T/C [13] was 71.9%, the viability, T/C [14] was 85.3% and the viability, T/C [15] was 70.2%. It also gave a viability, T/C [16] of 64.8%, a viability, T/C [17] of 55.5% and a viability, T/C [18] of 53%. For the same compound, the viability, T/C [19] was 83.6%, the viability, T/C [20] was 68.9% and the viability, T/C [21] was 65%. For the same compound, the viability, T/C [22] was 63.7%, the viability, T/C [23] was 55.9% and the viability, T/C [24] was 50.2%. It also gave a viability, T/C [25] of 73.5%, a viability, T/C [26] of 80.8% and a viability, T/C [27] of 60.9%. For the same compound, the viability, T/C [28] was 65.2%, the viability, T/C [29] was 58.8% and the viability, T/C [30] was 55.7%. For the same compound, the viability, T/C [31] was 69.6%, the viability, T/C [32] was 68.2% and the viability, T/C [33] was 62%. It also gave a viability, T/C [34] of 57.9%, a viability, T/C [35] of 50.1% and a viability, T/C [36] of 44.2%.
